Counter-ions that a name gives are not always drawn.

By inhibition is commonly meant the change of the read-out against control, counted positive when it falls. A high value points to a response far below the control.

The target of test [1] is pim-1 kinase (Homo sapiens, UniProt P11309). As to the kind of experiment: Measurement of pim-1 kinase inhibitory activity (fluorescent substrate peptide, capillary electrophoresis). The class given is biochemical. The settings on record: 0.1 μM of each compound, 30 μM ATP, 1.5 μM substrate peptide, room temperature 2 hours. Here is the method: Measurement of Pim-1 Kinase Inhibitory Activity
The result of the reaction was determined by quantifying the substrate and the phosphorylated reaction product separated by capillary electrophoresis based on difference in charges of the substances (EZ Reader II, Caliper Life Sciences, was used).

Test [2] deals with human acute myeloid leukemia MV4.11 cells. As to the kind of experiment: Cell proliferation-suppressing activity, fluorescence method (Alamar Blue assay). The settings on record: 48 h, compound 1 μM, Alamar Blue assay two days after inoculation, Table 5. It is filed as cell-based. The method, then: Measurement of Cell Proliferation-Suppressing Activity (Fluorescence Method)
Each compound was added to a 96-well microtiter plate at a final concentration of 1 μM, then human acute myeloid leukemia MV4.11 cells (10^4 cells) were inoculated, and the Alamar Blue assay was performed two days after the inoculation (measurement of fluorescence: Ex. 535 nm, Em. 590 nm) to measure cell proliferation-suppressing activity.

Test [3] deals with Human acute myeloid leukemia MV4-11 cells. As to the kind of experiment: Cell proliferation-suppressing activity, chromogenic method (MTT assay). Conditions: 72 h, compound 1 μM, MTT assay three days after addition, Table 4. It is filed as cell-based. The method, then: Measurement of Cell Proliferation-Suppressing Activity (Chromogenic Method)
Human acute myeloid leukemia MV4-11 cells (10^4 cells) were inoculated on a 96-well microtiter plate, each compound was added at a final concentration of 1 μM 24 hours afterward, and MTT assay was performed three days after the addition of the compound to measure the cell proliferation-suppressing activity.
Background: Formazan colour is commonly taken as a measure of viable cells.

pim-1 kinase, sequence (P11309 whole entry): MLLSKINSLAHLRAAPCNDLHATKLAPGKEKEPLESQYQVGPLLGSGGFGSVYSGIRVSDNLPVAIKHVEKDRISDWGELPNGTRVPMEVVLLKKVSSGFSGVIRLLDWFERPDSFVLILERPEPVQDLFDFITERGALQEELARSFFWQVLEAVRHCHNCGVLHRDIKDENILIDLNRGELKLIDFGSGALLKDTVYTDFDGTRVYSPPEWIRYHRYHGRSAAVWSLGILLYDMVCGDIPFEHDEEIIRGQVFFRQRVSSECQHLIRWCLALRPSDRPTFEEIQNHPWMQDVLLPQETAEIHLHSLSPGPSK

Consider `O=C1/C(=C/c2cn(S(=O)(=O)c3ccccc3Cl)c3ccccc23)Oc2c1ccc(O)c2CN1CCNCC1` [Compound A36, (Z)-2-{[1-(2-Chlorophenylsulfonyl)-1H-indol-3-yl]methylene}-6-hydroxy-7-(piperazin-1-ylmethyl)benzofuran-3(2H)-one dihydrochloride], for which at 0.1 µM the inhibition in test [1] (Table 1) was 99%. For the same compound, the inhibition at 1 µM in test [2] was 39%.

The compound `O=C1CN(Cc2c(O)ccc3c2O/C(=C\c2c[nH]c4ncccc24)C3=O)CCN1` [Compound A45, (Z)-4-({2-[(1H-Pyrrolo[2,3-b]pyridin-3-yl)methylene]-6-hydroxy-3-oxo-2,3-dihydrobenzofuran-7-yl}methyl)piperazin-2-one] returned an inhibition at 0.1 µM in test [1] (Table 1) of 83%. The compound further had an inhibition at 1 µM in test [2] of 15%.

Compound `Cc1ccc(S(=O)(=O)n2cc(/C=C3\Oc4c(ccc(O)c4CN4CCNCC4)C3=O)c3ccccc32)cc1` [Compound A33, (Z)-6-Hydroxy-7-(piperazin-1-ylmethyl)-2-[(1-tosyl-1H-indol-3-yl)methylene]benzofuran-3(2H)-one dihydrochloride] had an inhibition at 0.1 µM in test [1] (Table 1) of 94%. This compound showed an inhibition at 1 µM in test [2] of 32%.

Take `O=C1/C(=C/c2cn(S(=O)(=O)c3c(Cl)cccc3Cl)c3ccccc23)Oc2c1ccc(O)c2CN1CCNCC1` [Compound A37, (Z)-2-{[1-(2,6-Dichlorophenylsulfonyl)-1H-indol-3-yl]methylene}-6-hydroxy-7-(piperazin-1-ylmethyl)benzofuran-3(2H)-one dihydrochloride]: 0.1 µM produced 99% inhibition in test [1] (Table 1). In test [2], this compound had an inhibition at 1 µM of 55%.

Regarding `O=C1/C(=C/c2c[nH]c3ncccc23)Oc2c1ccc(O)c2CN1CCOCC1` [Compound A44, (Z)-2-[(1H-Pyrrolo[2,3-b]pyridin-3-yl)methylene]-6-hydroxy-7-(morpholinomethyl)benzofuran-3(2H)-one], in test [1] (Table 1), the inhibition at 0.1 µM was 27%. In addition, in test [2], 1 µM produced 46% inhibition.

Take `O=C1/C(=C/c2c[nH]c3ccccc23)Oc2c1cc(Cl)c(O)c2CN1CCNCC1` [Compound A12, (Z)-2-[(1H-Indol-3-yl)methylene]-5-chloro-6-hydroxy-7-(piperazin-1-ylmethyl)benzofuran-3(2H)-one dihydrochloride]: the inhibition at 0.1 µM in test [1] (Table 1) was 81%. The compound also yielded an inhibition at 1 µM in test [2] of 87%.

In test [1] (Table 1), `Nc1ccc2c(/C=C3\Oc4c(ccc(O)c4CN4CCNCC4)C3=O)c[nH]c2c1` [Compound A25, (Z)-2-[(6-Amino-1H-indol-3-yl)methylene]-6-hydroxy-7-(piperazin-1-ylmethyl)benzofuran-3(2H)-one trihydrochloride] showed an inhibition at 0.1 µM of 83%. The same compound showed an inhibition at 1 µM in test [2] of 20%.

Take `O=C1/C(=C/c2cn(S(=O)(=O)c3ccc(Cl)cc3)c3ccccc23)Oc2c1ccc(O)c2CN1CCNCC1` [Compound A35, (Z)-{[1-(4-Chlorophenylsulfonyl)-1H-indol-3-yl]methylene}-6-hydroxy-7-(piperazin-1-ylmethyl)benzofuran-3(2H)-one dihydrochloride]: in test [1] (Table 1), the inhibition at 0.1 µM came to 96%. The compound further showed an inhibition at 1 µM in test [2] of 48%.

In turn, `O=C1/C(=C/c2cn(S(=O)(=O)c3ccc(Cl)cc3Cl)c3ccccc23)Oc2c1ccc(O)c2CN1CCNCC1` [Compound A39, (Z)-2-{[1-(2,4-Dichlorophenylsulfonyl)-1H-indol-3-yl]methylene}-6-hydroxy-7-(piperazin-1-ylmethyl)benzofuran-3(2H)-one dihydrochloride] showed an inhibition at 0.1 µM in test [1] (Table 1) of 99%. This compound also returned an inhibition at 1 µM in test [2] of 51%.

On to `O=C1/C(=C/c2cn(S(=O)(=O)c3ccc(C(F)(F)F)cc3)c3ccccc23)Oc2c1ccc(O)c2CN1CCNCC1` [Compound A34, (Z)-6-Hydroxy-7-(piperazin-1-ylmethyl)-2-({1-[4-(trifluoromethyl)phenylsulfonyl]-1H-indol-3-yl}methylene)benzofuran-3(2H)-one dihydrochloride], for which, in test [1] (Table 1), testing at 0.1 µM gave an inhibition of 98%. Further, 1 µM produced 58% inhibition in test [2].

For the compound `C[C@H]1CNCCN1Cc1c(O)ccc2c1O/C(=C\c1n[nH]c3ccccc13)C2=O` [Compound B3, (Z)-2-[(1H-Indazol-3-yl)methylene]-6-hydroxy-7-{[2-(S)-methylpiperazin-1-yl]methyl}benzofuran-3(2H)-one], in test [1] (Table 2), at 0.1 µM the inhibition was 79%. In test [3], this compound displayed an inhibition at 1 µM of 79%.

Take `CC(C)COc1ccc2c(c1CN1CCNCC1)O/C(=C\c1n[nH]c3ccccc13)C2=O` [Compound B26, (Z)-2-[(1H-Indazol-3-yl)methylene]-6-isobutoxy-7-(piperazin-1-ylmethyl)benzofuran-3(2H)-one]: in test [1] (Table 2), the inhibition at 0.1 µM was determined as 78%. This compound showed an inhibition at 1 µM in test [3] of 86%.

In test [1] (Table 2), `O=C1/C(=C/c2n[nH]c3ccccc23)Oc2c1ccc(OCCc1ccccc1)c2CN1CCNCC1` [Compound B30, (Z)-2-[(1H-Indazol-3-yl)methylene]-6-phenethoxy-7-(piperazin-1-ylmethyl)benzofuran-3(2H)-one] had an inhibition at 0.1 µM of 89%. For the same compound, in test [3], the inhibition at 1 µM was 78%.

As to `O=C1/C(=C/c2cn(S(=O)(=O)c3cccc(Cl)c3Cl)c3ccccc23)Oc2c1ccc(O)c2CN1CCNCC1` [Compound A38, (Z)-2-{[1-(2,3-Dichlorophenylsulfonyl)-1H-indol-3-yl]methylene}-6-hydroxy-7-(piperazin-1-ylmethyl)benzofuran-3(2H)-one dihydrochloride], in test [1] (Table 1), 0.1 µM produced 99% inhibition. Testing at 1 µM in test [2] gave an inhibition of 43%.

For `Cc1ccc2[nH]cc(/C=C3\Oc4c(ccc(O)c4CN4CCNCC4)C3=O)c2c1` [Compound A18, (Z)-6-Hydroxy-2-[(5-methyl-1H-indol-3-yl)methylene]-7-(piperazin-1-ylmethyl)benzofuran-3(2H)-one dihydrochloride], the inhibition at 0.1 µM in test [1] (Table 1) stood at 95%. In addition, the inhibition at 1 µM in test [2] is 71%.

For `CC(c1c(O)ccc2c1O/C(=C\c1n[nH]c3ccccc13)C2=O)N1CCNCC1` (stereo not drawn) [Compound B7, (Z)-2-[(1H-Indazol-3-yl)methylene]-6-hydroxy-7-[1-(piperazin-1-yl)ethyl]benzofuran-3(2H)-one], 0.1 µM produced 86% inhibition in test [1] (Table 2). The inhibition at 1 µM in test [3] was found to be 88%.

In test [1] (Table 2), `COc1ccc2c(c1OC1CCNCC1)O/C(=C\c1n[nH]c3ccccc13)C2=O` [Compound B35, (Z)-2-[(1H-Indazol-3-yl)methylene]-6-methoxy-7-(piperidin-4-yloxy)benzofuran-3(2H)-one] yielded an inhibition at 0.1 µM of 97%. This compound also showed an inhibition at 1 µM in test [3] of 95%.

`COc1ccc2c(c1C(=O)N1CCNCC1)O/C(=C\c1n[nH]c3ccccc13)C2=O` [Compound B37, (Z)-2-[(1H-Indazol-3-yl)methylene]-6-methoxy-7-(piperazine-1-carbonyl)benzofuran-3(2H)-one] yielded an inhibition at 0.1 µM in test [1] (Table 2) of 85%. Also, the inhibition at 1 µM in test [3] was 76%.

The values above are taken from US9156827B2, “Anticancer agent” (THE UNIVERSITY OF TOKYO, priority 2010, dated 2015).
